Active and inactive are the calls of the source. How the calls were made is not given here.

The subject of the data set is in vitro micronucleus assay, mammalian cells. The experiment in a line: In vitro micronucleus assay, summary data.

On to `CCCCCCOc1ccc(O)cc1`, for which the outcome was “active; positive”.
For the compound `NCP(=O)(O)O`, the outcome is “inactive; negative”.
For the compound `CCc1cccc(C)c1N(C(=O)CCl)C(C)COC` (stereo unspecified), the outcome was “active; positive”.
In the case of `c1cc[n+]2c(c1)-c1cccc[n+]1CC2`, the outcome was “active; positive”.
As to `CCOC(=O)C1=C[C@]2(CC)CCCN3CCc4c(n1c1ccccc41)[C@@H]32`, the outcome is “active; positive”.
The entry for `[Cl][In]([Cl])[Cl]` is “active; positive”.
